Results published in patent US10092537B2, “Use for PAI-1 inhibitor” (RENASCIENCE CO., LTD., priority 2013, dated 2018).
Structures can show the parent of a compound that is named as a salt.

molecular target: human PAI-1 (Homo sapiens, UniProt P05121); experiment: Measurement of PAI-1 inhibitory activity of compound group 1 (t-PA, Spectrozyme t-PA chromogenic substrate); details: read-out: PAI-1 activity %
Sequence (P05121 24-402): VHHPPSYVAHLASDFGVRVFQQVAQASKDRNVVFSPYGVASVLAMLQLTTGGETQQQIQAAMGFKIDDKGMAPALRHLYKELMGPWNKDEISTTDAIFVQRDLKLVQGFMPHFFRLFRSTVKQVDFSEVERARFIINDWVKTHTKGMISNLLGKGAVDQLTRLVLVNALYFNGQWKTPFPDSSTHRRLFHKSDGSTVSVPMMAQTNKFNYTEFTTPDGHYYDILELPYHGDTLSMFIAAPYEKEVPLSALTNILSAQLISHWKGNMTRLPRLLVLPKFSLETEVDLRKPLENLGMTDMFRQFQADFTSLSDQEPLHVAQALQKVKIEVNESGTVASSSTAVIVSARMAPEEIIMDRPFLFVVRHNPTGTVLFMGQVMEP

SMILES | activity at 2.5 µM [%] | activity at 10 µM [%]
O=C(Nc1ccc(Cl)cc1C(=O)O)c1ccc(OCC23CC4CC(CC(C4)C2)C3)cc1 [Example 52, 2-({[4-(adamantan-1-ylmethoxy)phenyl]carbonyl}amino)-5-chlorobenzoic acid] | 7.2 | 5.1
O=C(Nc1ccc(Cl)cc1C(=O)O)c1ccc(C(=O)c2ccccc2)cc1 [Known compound (4), 5-chloro-2-{[(4-(phenylcarbonyl)phenyl]carbonyl}amino} benzoic acid, reference compound] | 79.6 | 8.1
Cc1cccc(-c2ccc(NC(=O)COc3cccc(-c4ccoc4)c3)c(C(=O)O)c2)c1 [Example 27, 4-({[3-(furan-3-yl)phenoxy]acetyl}amino)-3′-methylbiphenyl-3-carboxylic acid] | 69.1 | 0.7
COc1ccccc1-c1cccc(OCC(=O)Nc2ccc(Cl)cc2C(=O)O)c1 [Example 61, 5-chloro-2-({[(2′-methoxybiphenyl-3-yl)oxy]acetyl}amino)benzoic acid] | 92.4 | 38.9
O=C(Nc1ccc(Cl)cc1C(=O)O)c1ccc(C2CCCCC2)cc1 [Example 69, 5-chloro-2-{[(4-cyclohexylphenyl)carbonyl]amino}benzoic acid] | 44.7 | 0.6
O=C(Nc1ccc(-c2ccccc2)cc1)Nc1ccc(Cl)cc1C(=O)O [Example 71, 2-[(biphenyl-4-ylcarbamoyl)amino]-5-chlorobenzoic acid] | 39.6 | 2.1
COc1ccccc1-c1cccc(C(=O)Nc2ccc(Cl)cc2C(=O)O)c1 [Example 33, 5-chloro-2-{[(2′-methoxybiphenyl-3-yl)carbonyl]amino}benzoic acid] | 92.8 | 21.6
O=C(COc1ccc(-c2ccoc2)cc1)Nc1ccc(Cl)cc1C(=O)O [Example 29, 5-chloro-2-({[4-(furan-3-yl)phenoxy]acetyl}amino)benzoic acid] | 93.2 | 24.3
O=C(Nc1ccc(Cl)cc1C(=O)O)c1ccc(C2=CCOCC2)cc1 [Example 34, 5-chloro-2-({[4-(3,6-dihydro-2H-pyran-4-yl)phenyl]carbonyl}amino)benzoic acid] | 97.1 | 45.1
O=C(COc1ccc(C2CCCCC2)cc1)Nc1ccc(Cl)cc1C(=O)O [Known compound (3), 5-chloro-2-{[(4-cyclohexylphenoxy)acetyl]amino} benzoic acid, reference compound] | 36.3 | 0.3
Cc1cc(C)cc(-c2ccc(NC(=O)COc3cccc(-c4ccoc4)c3)c(C(=O)O)c2)c1 [Example 28, 4-({[3-(furan-3-yl)phenoxy]acetyl}amino)-3′,5′-dimethylbiphenyl-3-carboxylic acid] | 33.6 | 0.5
O=C(O)c1cc(Cl)ccc1NC(=O)C(c1ccccc1)c1ccccc1 [Known compound (6), 5-chloro-2-[(diphenylacetyl)amino] benzoic acid, reference compound] | 85 | 37.4
O=C(Nc1ccc(Cl)cc1C(=O)O)c1ccc(C23CC4CC(CC(C4)C2)C3)cc1 [Example 40, 2-({[4-(adamantan-1-yl)phenyl]carbonyl}amino)-5-chlorobenzoic acid] | 19.3 | 1.7
O=C(Nc1ccc(Cl)cc1C(=O)O)c1ccc(Oc2ccccc2)cc1 [Example 42, 5-chloro-2-{[(4-phenoxyphenyl)carbonyl]amino}benzoic acid] | 98.6 | 3.8
CC(C)(C(=O)Nc1ccc(Cl)cc1C(=O)O)c1cccc(-c2ccoc2)c1 [Example 37, 5-chloro-2-({2-[3-(furan-3-yl)phenyl]-2-methylpropanoyl}amino)benzoic acid] | 53.1 | 5.9
O=C(COc1cccc(-c2ccoc2)c1)Nc1ccc(Br)cc1C(=O)O [Example 15, 5-bromo-2-({[3-(furan-3-yl)phenoxy]acetyl}amino)benzoic acid] | 87.3 | 3
O=C(/C=C/c1cccc(C2=CCCCC2)c1)Nc1ccc(Cl)cc1C(=O)O [Example 90, 5-chloro-2-({(2E)-3-[3-(cyclohex-1-en-1-yl)phenyl]prop-2-enoyl}amino)benzoic acid] | 65.3 | 0.1
O=C(Nc1ccc(Cl)cc1-c1nnn[nH]1)c1cccc(-c2cccc3cccnc23)c1 [Example 102, N-[4-chloro-2-(1H-tetrazol-5-yl)phenyl]-3-(quinolin-8-yl)benzamide] | 91.3 | 1.5
O=C(Nc1ccc(Cl)cc1C(=O)O)C1=CC2(CCCCC2)CCC1 [Example 84, 5-chloro-2-[(spiro[5.5]undec-1-en-2-ylcarbonyl)amino]benzoic acid] | 97 | 5.5
O=C(/C=C(/Cl)C1CCCCC1)Nc1ccc(Cl)cc1C(=O)O [Example 91, 5-chloro-2-{[(2E)-3-chloro-3-cyclohexylprop-2-enoyl]amino}benzoic acid] | 96.9 | 16.7
O=C(COc1ccc(-c2ccco2)cc1)Nc1ccc(Cl)cc1C(=O)O [Example 54, 5-chloro-2-({[4-(furan-2-yl)phenoxy]acetyl}amino)benzoic acid] | 94.4 | 15.5
O=C(Nc1ccc(Cl)cc1C(=O)O)c1cccc(C#CC2CCCCC2)c1 [Example 87, 5-chloro-2-({[3-(cyclohexylethynyl)phenyl]carbonyl}amino)benzoic acid] | 20.5 | 1.2
O=C(Nc1ccc(Cl)cc1C(=O)O)c1ccc(-c2ccc(F)cc2)s1 [Example 104, 5-chloro-2-({[5-(4-fluorophenyl)thiophen-2-yl]carbonyl}amino)benzoic acid] | 84.8 | 0.9
O=C(COc1cccc(C2CCCCC2)c1)Nc1ccc(Cl)cc1C(=O)O [Example 26, 5-chloro-2-{[(3-cyclohexylphenoxy)acetyl]amino}benzoic acid] | 98 | 0.6
O=C(Nc1ccc(Cl)cc1C(=O)O)C(=O)c1c[nH]c2ccc(OCc3ccccc3)cc12 [Example 57, 2-({[5-(benzyloxy)-1H-indol-3-yl](oxo)acetyl}amino)-5-chlorobenzoic acid] | 38.6 | 0.2
O=C(O)c1cc(Cl)ccc1NC(=O)N1CCN(C(c2ccccc2)c2ccccc2)CC1 [Example 75, 5-chloro-2-({[4-(diphenylmethyl)piperazin-1-yl]carbonyl}amino)benzoic acid hydrochloride] | 86.4 | 4.7
O=C(COc1cccc(C23CC4CC(CC(C4)C2)C3)c1)Nc1ccc(Cl)cc1C(=O)O [Example 30, 2-({[3-(adamantan-1-yl)phenoxy]acetyl}amino)-5-chlorobenzoic acid] | 19.3 | 1.3
O=C(Cn1ccc2cc(Br)ccc21)Nc1ccc(Cl)cc1C(=O)O [Example 24, 2-{[(5-bromo-1H-indol-1-yl)acetyl]amino}-5-chlorobenzoic acid] | 102 | 19.1
